US10875860B2, “Azaindenoisoquinoline compounds and uses thereof” (Purdue Research Foundation, priority 2016, dated 2020)
Where two headings read alike, the source gives them in different places.

Experiments:
OVCAR-3 = assay: NCI-60 cytotoxicity, OVCAR-3; details: Homo sapiens, OVCAR-3, read-out: Cytotoxicity (GI50) Ovarian Ovcar-3
HOP-62 = assay: NCI-60 cytotoxicity, HOP-62; details: Homo sapiens, HOP-62, read-out: Cytotoxicity (GI50) Lung HOP-62
[1] = system: NCI-60 panel of human cancer cell lines; assay: NCI-60 screen, mean graph midpoint over all cell lines; details: Homo sapiens, read-out: Cytotoxicity (GI50) MGM
recombinant human TDP2 = target: T1, recombinant human TDP2 (Homo sapiens, UniProt O95551); assay: Recombinant Tdp2 assay; assay type: biochemical
T1 sequence (O95551 1-362): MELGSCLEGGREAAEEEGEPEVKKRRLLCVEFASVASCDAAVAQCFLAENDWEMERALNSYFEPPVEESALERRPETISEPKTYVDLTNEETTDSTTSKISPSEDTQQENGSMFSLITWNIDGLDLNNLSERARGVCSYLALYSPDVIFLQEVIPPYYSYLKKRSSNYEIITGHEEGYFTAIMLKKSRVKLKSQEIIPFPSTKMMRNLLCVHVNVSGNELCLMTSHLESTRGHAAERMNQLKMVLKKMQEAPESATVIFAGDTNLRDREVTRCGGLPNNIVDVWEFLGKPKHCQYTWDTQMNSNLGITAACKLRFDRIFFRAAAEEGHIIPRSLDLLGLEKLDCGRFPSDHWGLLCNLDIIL

HCT-116 = assay: NCI-60 cytotoxicity, HCT-116; assay type: cell-based; details: Homo sapiens, single determinations, Table 2, read-out: Cytotoxicity (GI50) Colon HCT-116
UACC-62 = assay: NCI-60 cytotoxicity, UACC-62; details: Homo sapiens, UACC-62, read-out: Cytotoxicity (GI50) Melanoma UACC-62
SN12C = assay: NCI-60 cytotoxicity, SN12C; details: Homo sapiens, read-out: Cytotoxicity (GI50) Renal SN12C
MCF-7 = assay: NCI-60 cytotoxicity, MCF-7; details: Homo sapiens, MCF7, read-out: Cytotoxicity (GI50) Breast MCF-7
SF-539 = assay: NCI-60 cytotoxicity, SF-539; details: Homo sapiens, SF-539, read-out: Cytotoxicity (GI50) CNS SF-539
Tdp1 = Tdp1 (Homo sapiens, UniProt Q9NUW8); assay: Recombinant Tdp1 assay; assay type: biochemical
Sequence of Tdp1 (Q9NUW8 whole entry): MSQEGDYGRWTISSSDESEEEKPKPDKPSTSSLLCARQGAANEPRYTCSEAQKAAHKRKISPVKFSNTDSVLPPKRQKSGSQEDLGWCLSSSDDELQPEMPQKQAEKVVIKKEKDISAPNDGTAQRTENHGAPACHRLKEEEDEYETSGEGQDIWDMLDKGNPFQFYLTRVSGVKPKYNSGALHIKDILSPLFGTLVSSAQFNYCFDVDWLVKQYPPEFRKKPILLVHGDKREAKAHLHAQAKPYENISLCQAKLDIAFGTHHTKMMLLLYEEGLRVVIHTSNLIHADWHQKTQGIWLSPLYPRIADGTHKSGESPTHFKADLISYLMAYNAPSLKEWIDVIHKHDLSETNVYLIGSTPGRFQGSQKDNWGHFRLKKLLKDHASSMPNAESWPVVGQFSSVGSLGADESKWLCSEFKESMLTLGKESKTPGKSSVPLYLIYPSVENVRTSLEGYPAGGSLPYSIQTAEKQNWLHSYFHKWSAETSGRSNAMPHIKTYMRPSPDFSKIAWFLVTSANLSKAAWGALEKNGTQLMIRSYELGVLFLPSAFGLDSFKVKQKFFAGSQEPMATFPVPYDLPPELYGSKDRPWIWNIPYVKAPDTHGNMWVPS

DU-145 = assay: NCI-60 cytotoxicity, DU-145; assay type: cell-based; details: Homo sapiens, single determinations, Table 2, read-out: Cytotoxicity (GI50) Prostate DU-145
Top1 = target: T2, Top1 (Homo sapiens, UniProt P11387); assay: Top1-mediated DNA cleavage assay; assay type: biochemical; parameters: Top1 inhibitory activity level / Top1 inhibitory activity score: key to the marks not given beside the values
T2 sequence (P11387 1-765): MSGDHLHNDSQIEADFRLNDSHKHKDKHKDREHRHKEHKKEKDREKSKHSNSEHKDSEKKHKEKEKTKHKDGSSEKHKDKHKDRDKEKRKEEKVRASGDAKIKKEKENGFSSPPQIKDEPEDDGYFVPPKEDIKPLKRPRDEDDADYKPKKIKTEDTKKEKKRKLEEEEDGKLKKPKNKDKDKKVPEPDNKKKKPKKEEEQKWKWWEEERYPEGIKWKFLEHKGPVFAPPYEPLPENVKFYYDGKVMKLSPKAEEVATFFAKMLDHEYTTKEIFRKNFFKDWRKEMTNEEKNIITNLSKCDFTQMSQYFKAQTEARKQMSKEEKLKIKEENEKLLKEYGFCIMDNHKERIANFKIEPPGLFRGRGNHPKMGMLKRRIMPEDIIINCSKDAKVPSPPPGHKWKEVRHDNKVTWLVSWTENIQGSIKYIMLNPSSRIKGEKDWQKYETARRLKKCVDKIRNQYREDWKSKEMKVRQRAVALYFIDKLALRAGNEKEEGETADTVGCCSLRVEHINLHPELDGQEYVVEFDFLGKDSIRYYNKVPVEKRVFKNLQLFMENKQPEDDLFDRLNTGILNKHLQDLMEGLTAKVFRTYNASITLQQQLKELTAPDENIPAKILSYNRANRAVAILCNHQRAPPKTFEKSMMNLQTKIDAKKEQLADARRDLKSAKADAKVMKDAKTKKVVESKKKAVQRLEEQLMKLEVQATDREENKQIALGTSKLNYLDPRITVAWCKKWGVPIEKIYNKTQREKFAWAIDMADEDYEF

[2] = read-out: Enzyme Inhibitory Activity Tdp2 (IC50)
[3] = determined in duplicate, Table 2, read-out: Enzyme Inhibitory Activity Tdp1 (IC50)
[4] = DNA cleavage relative to 1 μM MJ-III-65 (19) and 1 μM camptothecin (18), Table 2
[5] = determined in duplicate, Table 2, read-out: Enzyme Inhibitory Activity Tdp2 (IC50)

| IC50 (Tdp1; [3]) [nM] | Enzyme Inhibitory Activity Top1 (Top1; [4]) | IC50 (recombinant human TDP2; [5]) [nM] | SMILES | GI50 (OVCAR-3) [nM] | GI50 (HOP-62) [nM] | GI50 [1] [nM] | GI50 (HCT-116) [nM] | GI50 (UACC-62) [nM] | GI50 (SN12C) [nM] | GI50 (MCF-7) [nM] | GI50 (SF-539) [nM] | GI50 (DU-145) [nM] | other results |
| --- | --- | --- | --- | --- | --- | --- | --- | --- | --- | --- | --- | --- | --- |
| 33300 ± 4200 | ++ | > 111000 | COc1cnc2c(c1)C(=O)c1c-2n(CCCNC(C)C)c(=O)c2cc(Cl)ccc12 [Compound 16f, 3-Chloro-9-methoxy-6-(3-(isopropylamino)propyl)-5H-pyrido[3′,2′:4,5]cyclopenta[1,2-c]isoquinoline-5,11(6H)-dione] | 1390 | 70 | 380 | 138 | 303 | 417 | 37 | 554 | 173 |  |
| > 111000 | + |  | COc1cnc2c(c1)C(=O)c1c-2n(CCCN2CCN(C)CC2)c(=O)c2cc(Cl)ccc12 [Compound 16j, 3-Chloro-9-methoxy-6-(3-(4-methylpiperazin-1-yl)propyl)-5H-pyrido[3′,2′:4,5]cyclopenta[1,2-c]isoquinoline-5,11(6H)-dione] | 15100 | 950 | 2950 | 980 | 1810 | 10200 | 487 | 2150 | 3180 |  |
| > 111000 | +++ | > 111000 | COc1cnc2c(c1)C(=O)c1c-2n(CCCn2ccnc2)c(=O)c2cc(F)ccc12 [Compound 17b, 6-(3-(1H-Imidazol-1-yl)propyl)-3-fluoro-9-methoxy-5H-pyrido[3′,2′:4,5]-cyclo-penta[1,2-c]isoquinoline-5,11(6H)-dione] | 43 | < 10 | 33 | < 10 | 16 | < 10 | < 10 | 24 | < 10 |  |
|  |  |  | CC[C@@]1(O)C(=O)OCc2c1cc1n(c2=O)Cc2cc3ccccc3nc2-1 [Compound 18, camptothecin, reference compound] |  | < 10 | 40 |  | < 10 | 20 | 13 | < 10 |  | IC50 (recombinant human TDP2): > 111000 nM; IC50 (Tdp1): > 111000 nM; Enzyme Inhibitory Activity Top1 (Top1; DNA cleavage relative to 1 μM MJ-III-65 (19) and 1 μM camptothecin (18), Table 1): ++++ |
| > 111000 | +++ | > 111000 | COc1cnc2c(c1)C(=O)c1c-2n(CCCN2CCOCC2)c(=O)c2cc(Cl)ccc12 [Compound 16a, 3-Chloro-9-methoxy-6-(3-morpholinopropyl)-5H-pyrido[3′,2′:4,5]cyclopenta[1,2-c]isoquinoline-5,11(6H)-dione] | 780 | 270 | 100 | 160 | 180 |  | 90 | 230 | 410 |  |
|  |  |  | COc1cc2c3c(n(CCCNCCO)c(=O)c2cc1OC)-c1cc2c(cc1C3=O)OCO2 [Compound 19, reference compound] | 500 | 20 | 210 |  | 30 | < 10 | < 10 | 40 |  | IC50 (recombinant human TDP2; semiquantitative scale, in duplicate, Table 1, read-out: Enzyme Inhibitory Activity Tdp2): 1000 to 12000 nM; IC50 (Tdp1; semiquantitative scale, in duplicate, Table 1, read-out: Enzyme Inhibitory Activity Tdp1): 12000 to 111000 nM; Enzyme Inhibitory Activity Top1 (Top1): ++++ |
|  |  |  | COc1cnc2c(c1)C(=O)c1c-2n(CCCN2CCCC2)c(=O)c2cc(Cl)ccc12 [Compound 16i, 3-Chloro-9-methoxy-6-(3-(pyrrolidin-1-yl)propyl)-5H-pyrido[3′,2′:4,5]cyclopenta[1,2-c]isoquinoline-5,11(6H)-dione] |  |  |  |  |  |  |  |  |  | IC50 (Tdp1; read-out: Enzyme Inhibitory Activity Tdp1 (IC50)): 27500 ± 600 nM |
| 22200 ± 6400 |  |  | CCNCCCn1c2c(c3ccc(Cl)cc3c1=O)C(=O)c1cc(OC)cnc1-2 [Compound 16h, 3-Chloro-9-methoxy-6-(3-(ethylamino)propyl)-5H-pyrido[3′,2′:4,5]cyclopenta[1,2-c]isoquinoline-5,11(6H)-dione] | 2130 | 122 | 426 | 203 | 532 | 675 | < 10 | 506 | 208 |  |
| > 111000 | +++ | > 111000 | COc1cnc2c(c1)C(=O)c1c-2n(CCCn2ccnc2)c(=O)c2cc(Cl)ccc12 [Compound 16b, 6-(3-(1H-Imidazol-1-yl)propyl)-3-chloro-9-methoxy-5H-pyrido[3′,2′:4,5]cyclopenta[1,2-c]isoquinoline-5,11(6H)-dione] | 120 | 20 | 63 | 14 | 28 |  | < 10 | 38 | 43 |  |

| SMILES | IC50 (Tdp1; [3]) [nM] | Enzyme Inhibitory Activity Top1 (Top1; [4]) | IC50 (recombinant human TDP2; [5]) [nM] | GI50 (OVCAR-3) [nM] | GI50 (HOP-62) [nM] | GI50 [1] [nM] | GI50 (HCT-116) [nM] | GI50 (UACC-62) [nM] | GI50 (SN12C) [nM] | GI50 (MCF-7) [nM] | GI50 (SF-539) [nM] | GI50 (DU-145) [nM] | other results |
| --- | --- | --- | --- | --- | --- | --- | --- | --- | --- | --- | --- | --- | --- |
| COc1cnc2c(c1)C(=O)c1c-2n(CCCN2CCNCC2)c(=O)c2cc(F)ccc12 [Compound 17e, 3-Fluoro-9-methoxy-6-(3-(piperazin-1-yl)propyl)-5H-pyrido[3′,2′:4,5]cyclopenta-[1,2-c]isoquinoline-5,11(6H)-dione] | > 111000 | + |  | 335 | 66 | 218 | 91 | 1260 | 80 | 34 | 532 | 62 | IC50 (recombinant human TDP2; [2]): 107000 ± 5200 nM |
| CCNCCCn1c2c(c3ccc(F)cc3c1=O)C(=O)c1cc(OC)cnc1-2 [Compound 17h, 6-(3-(Ethylamino)propyl)-3-fluoro-9-methoxy-5H-pyrido[3′,2′:4,5]cyclopenta[1,2-c]isoquinoline-5,11(6H)-dione] | > 111000 | ++ |  | 282 | 149 | 229 | 136 | 341 | 151 | 42 | 320 | 215 | IC50 (recombinant human TDP2; [2]): 104000 nM |
| COc1cnc2c(c1)C(=O)c1c-2n(CCCN2CCC(O)CC2)c(=O)c2cc(Cl)ccc12 [Compound 16d, 3-Chloro-6-(3-(4-hydroxypiperidin-1-yl)propyl)-9-methoxy-5H-pyrido[3′,2′:4,5]cyclopenta-[1,2-c]isoquinoline-5,11(6H)-dione] | 14000 ± 1000 | ++++ | > 111000 | 1420 | 94 | 660 | 98 | 190 |  | 42 | 430 | 270 | Top1 inhibitory activity score (Top1; running text b88 on series 2, tested at 0.1, 1, 10 and 100 μM): ++++ |
